Activity calls are given as the source filed them.
What was measured:
[1] = molecular target: T1, Heat shock factor protein 1 (Mus musculus, UniProt P38532); test: enhancement of HSF1-driven luciferase signal – cell-based, NIH3T3, luminescence, dose retest, confirmation (AID 435004); format: functional;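 also: stress induced by proteasome inhibitor MG132 added 30 min after compound; luciferase reporter driven by HSF1 response element in NIH3T3 cells; actives raise luminescence as potentiators of the MG132 stress response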
T1 sequence (P38532 whole entry): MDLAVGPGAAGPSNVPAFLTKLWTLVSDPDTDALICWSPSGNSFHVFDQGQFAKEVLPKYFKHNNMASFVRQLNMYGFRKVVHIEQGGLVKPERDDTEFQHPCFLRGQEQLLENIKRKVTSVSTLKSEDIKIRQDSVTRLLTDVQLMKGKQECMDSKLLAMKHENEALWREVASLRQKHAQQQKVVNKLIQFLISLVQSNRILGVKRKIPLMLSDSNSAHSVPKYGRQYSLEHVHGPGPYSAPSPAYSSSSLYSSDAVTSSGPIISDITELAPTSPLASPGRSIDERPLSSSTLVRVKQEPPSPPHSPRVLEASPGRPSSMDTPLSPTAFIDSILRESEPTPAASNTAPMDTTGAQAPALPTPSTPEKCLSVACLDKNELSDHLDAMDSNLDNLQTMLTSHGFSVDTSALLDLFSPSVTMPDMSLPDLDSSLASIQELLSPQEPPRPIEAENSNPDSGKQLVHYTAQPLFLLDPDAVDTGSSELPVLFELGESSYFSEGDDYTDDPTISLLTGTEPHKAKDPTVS

[2] = Luminescence Cell-Based Dose Retest to Confirm Inhibitors of Cancer Stem Cells. [Related pubchem assays (depositor defined):AID2717, AID2721]; format: functional; conditions: Homo sapiens
Protein skinhead-1 = molecular target: T2, Protein skinhead-1 (Caenorhabditis elegans, UniProt P34707); format: functional
T2 sequence (P34707 whole entry): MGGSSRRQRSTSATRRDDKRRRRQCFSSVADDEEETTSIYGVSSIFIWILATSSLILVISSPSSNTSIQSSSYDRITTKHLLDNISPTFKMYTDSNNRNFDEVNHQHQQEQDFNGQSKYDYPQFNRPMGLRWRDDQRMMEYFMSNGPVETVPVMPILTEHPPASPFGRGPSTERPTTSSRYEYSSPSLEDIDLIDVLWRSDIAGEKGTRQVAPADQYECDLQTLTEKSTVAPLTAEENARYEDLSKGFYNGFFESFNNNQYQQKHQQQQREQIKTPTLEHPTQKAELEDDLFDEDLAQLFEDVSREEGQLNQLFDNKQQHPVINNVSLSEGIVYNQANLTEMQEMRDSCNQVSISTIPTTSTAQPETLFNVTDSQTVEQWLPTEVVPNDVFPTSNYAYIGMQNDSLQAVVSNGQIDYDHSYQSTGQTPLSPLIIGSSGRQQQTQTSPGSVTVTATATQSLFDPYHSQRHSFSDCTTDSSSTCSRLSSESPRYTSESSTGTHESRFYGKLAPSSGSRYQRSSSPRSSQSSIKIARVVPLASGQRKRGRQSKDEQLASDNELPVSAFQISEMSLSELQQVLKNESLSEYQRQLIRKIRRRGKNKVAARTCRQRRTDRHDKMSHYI

[3] = molecular target: Hepatocyte nuclear factor 4-alpha (Homo sapiens, UniProt P41235); format: functional, cell-based;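 also: biochemical luminescence-based dose-response counterscreen measuring inhibition of HNF4 dimerization, run alongside a screen for blockers of ABHD5–perilipin-5 interaction; split luciferase complementation of HNF4 fusion proteins in cell lysate measuring dimerization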
Vero = test: cells; format: functional; conditions: Chlorocebus sabaeus
[4] = Cytotoxicity Dose Response with AM2.2-beta2AR cells for PowderSet01.; format: functional, cell-based; conditions: read-out: EC50_MICROM
[5] = molecular target: T3, Beta-2 adrenergic receptor (Homo sapiens, UniProt P07550); test: ADRB2 activation measured by internalization – cell-based, FAP fluorogen, flow cytometry, cherry pick 1, dose response (AID 588763); format: functional
[6] = molecular target: T3, Beta-2 adrenergic receptor; test: Dose response for HTS for Beta-2AR agonists via FAP method from Powderset1.; format: functional
Streptokinase A = molecular target: T4, Streptokinase A (Streptococcus pyogenes serotype M1, UniProt P10520); test: viability-normalized secreted streptokinase activity reduction – plasminogen activation absorbance, OD405, dose response (AID 1914); format: functional, Streptococcus pyogenes M1 GAS;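 also: secreted streptokinase activity via plasminogen activation per viability signal from cell pellet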
T4 sequence (P10520 whole entry): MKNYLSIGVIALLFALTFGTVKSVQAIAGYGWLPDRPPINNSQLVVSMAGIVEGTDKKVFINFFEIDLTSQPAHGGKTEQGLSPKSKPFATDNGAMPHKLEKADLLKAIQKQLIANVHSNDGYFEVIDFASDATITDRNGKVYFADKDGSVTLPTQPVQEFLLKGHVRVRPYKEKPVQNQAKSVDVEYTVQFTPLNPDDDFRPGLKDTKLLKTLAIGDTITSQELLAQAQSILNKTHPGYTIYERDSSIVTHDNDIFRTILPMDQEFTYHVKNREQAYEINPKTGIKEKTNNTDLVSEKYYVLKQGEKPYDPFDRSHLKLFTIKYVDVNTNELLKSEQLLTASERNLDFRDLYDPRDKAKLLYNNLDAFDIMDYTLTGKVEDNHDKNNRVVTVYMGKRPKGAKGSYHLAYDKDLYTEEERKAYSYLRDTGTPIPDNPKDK

INS1 = test: INS-1E survival protection against cytokine death – cell-based, luminescence, retest, dose response (AID 449756); format: functional; conditions: Rattus norvegicus;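 also: cell death triggered by IL-1 beta plus TNF-alpha plus IFN-gamma mixture; protective hits raise ATP signal compared with cytokine alone wells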
[7] = reduction of Shn3 3'UTR-driven luciferase in osteoblasts – cell-based, Clone20 osteoblasts, firefly luciferase, cherry-picked, dose response (AID 624132); format: functional;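 also: firefly luciferase luminescence from reporter carrying the Shn3 3'UTR in osteoblasts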
Nonstructural protein 1 = Nonstructural protein 1 (Influenza A virus, UniProt Q194T2); format: functional, Influenza A virus (A/California/07/2009(H1N1))
[8] = molecular target: Photoreceptor-specific nuclear receptor (Homo sapiens, UniProt Q9Y5X4); format: functional, cell-based;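 also: CHO-S cells with Gal4-NCOR and VP16-NR2E3 two-hybrid luciferase reporter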
Streptococcus = test: GAS UMAA2166 growth inhibition – luminescence, BacTiterGlo, counter-screen for streptokinase expression inhibitor project, dose response (AID 1915); format: functional, organism-based;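 also: potency for reduction of bacterial viability or growth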
[9] = system: Streptococcus sp. 'group A'; test: Streptococcus pyogenes SK(-)GAS viability under kanamycin – luminescence, BacTiterGlo, confirmation, counter-screen for streptokinase expression inhibitor project, dose response (AID 1900); format: functional, organism-based
[10] = loss of viability in HepG2 cells – cell-based, CellTiter-Glo, cherry-picked, cytotoxicity control for Shn3 inhibitor project, dose response (AID 624134); format: functional
[11] = non-specific 3'UTR reporter inhibition in Clone20-Shn3RL – cell-based, Renilla luciferase, cherry-picked, counter-screen for Shn3 inhibitor project, dose response (AID 624133); format: functional
[12] = activation of miR-122 Renilla sensor silencing – cell-based, Huh7 psiCHECK-miR122, Renilla luciferase, cherry-picked, dose response (AID 651956); format: functional;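 also: huh7 hepatoma cells stably carrying a psiCHECK-2 miR-122 sensor plasmid; renilla luciferase signal reporting endogenous miR-122 activity after 48 h compound exposure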
[13] = general mammalian cell viability loss – activator set, cherry-pick, cytotoxicity control for miR-122 modulator project, dose response (AID 720690); format: functional, cell-based;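 also: HEK293T human cells scored for general mammalian cytotoxicity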
[14] = general mammalian cell viability loss – inhibitor set, cherry-pick, set 2, cytotoxicity control for miR-122 modulator project, dose response (AID 720697); format: functional, cell-based

T3 sequence (P07550 whole entry): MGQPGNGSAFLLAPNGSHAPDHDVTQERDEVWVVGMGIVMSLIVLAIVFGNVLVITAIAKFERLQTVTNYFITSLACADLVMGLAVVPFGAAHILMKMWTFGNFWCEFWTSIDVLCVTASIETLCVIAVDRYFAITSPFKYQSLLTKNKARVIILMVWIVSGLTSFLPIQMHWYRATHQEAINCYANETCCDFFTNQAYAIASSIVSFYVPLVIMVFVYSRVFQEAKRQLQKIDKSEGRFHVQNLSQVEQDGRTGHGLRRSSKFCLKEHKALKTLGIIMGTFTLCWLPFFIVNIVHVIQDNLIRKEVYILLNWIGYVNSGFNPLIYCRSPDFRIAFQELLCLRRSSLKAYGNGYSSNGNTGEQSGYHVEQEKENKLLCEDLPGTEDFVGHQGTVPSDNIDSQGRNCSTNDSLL
Chain of Photoreceptor-specific nuclear receptor (Q9Y5X4 whole entry, the tested form may be a part): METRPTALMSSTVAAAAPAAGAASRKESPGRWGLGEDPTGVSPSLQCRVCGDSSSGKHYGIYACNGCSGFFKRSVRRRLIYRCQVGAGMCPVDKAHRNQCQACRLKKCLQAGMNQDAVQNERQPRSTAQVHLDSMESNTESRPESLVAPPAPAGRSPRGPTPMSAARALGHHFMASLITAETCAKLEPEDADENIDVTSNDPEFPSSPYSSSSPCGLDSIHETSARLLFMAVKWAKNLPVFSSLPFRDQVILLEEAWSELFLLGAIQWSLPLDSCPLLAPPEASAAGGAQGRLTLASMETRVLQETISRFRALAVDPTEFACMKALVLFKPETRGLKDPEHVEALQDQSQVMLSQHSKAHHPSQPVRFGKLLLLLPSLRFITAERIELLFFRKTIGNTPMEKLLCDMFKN
Chain of Hepatocyte nuclear factor 4-alpha (P41235 whole entry, the tested form may be a part): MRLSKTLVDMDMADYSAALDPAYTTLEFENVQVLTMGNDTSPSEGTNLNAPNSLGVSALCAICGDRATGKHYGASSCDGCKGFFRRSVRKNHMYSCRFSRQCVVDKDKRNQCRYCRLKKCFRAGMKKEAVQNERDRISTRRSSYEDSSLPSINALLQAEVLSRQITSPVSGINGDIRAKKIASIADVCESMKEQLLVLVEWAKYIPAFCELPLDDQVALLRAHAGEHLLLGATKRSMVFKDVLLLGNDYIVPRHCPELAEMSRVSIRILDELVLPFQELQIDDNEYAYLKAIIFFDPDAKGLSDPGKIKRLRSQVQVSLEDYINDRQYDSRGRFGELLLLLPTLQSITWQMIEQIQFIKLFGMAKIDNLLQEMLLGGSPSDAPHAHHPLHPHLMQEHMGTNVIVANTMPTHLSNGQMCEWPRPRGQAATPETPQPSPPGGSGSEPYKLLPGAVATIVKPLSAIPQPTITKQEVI
Chain of Nonstructural protein 1 (Q194T2 whole entry, the tested form may be a part): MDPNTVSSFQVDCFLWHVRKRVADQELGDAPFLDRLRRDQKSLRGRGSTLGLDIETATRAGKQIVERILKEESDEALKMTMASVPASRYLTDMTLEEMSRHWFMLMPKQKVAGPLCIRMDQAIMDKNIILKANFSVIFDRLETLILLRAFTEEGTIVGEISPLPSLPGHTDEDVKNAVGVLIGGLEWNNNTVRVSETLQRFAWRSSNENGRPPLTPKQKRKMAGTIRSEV

O=C(/C=C/Sc1ccccc1)c1ccc(Cl)cc1
active: EC50 [1] 9.05 µM | AC50 [2] 3.46 µM | IC50 (Protein skinhead-1) 31 µM | IC50 [3] 6.31 µM | CC50 (Vero) 14.2 µM

O=C(Nc1ccc(S(=O)(=O)N2CCCCC2c2cccnc2)cc1)c1c(F)cccc1F (stereo not given)
active: EC50 [4] 5.39 µM | EC50 [5] 2.46 µM | EC50 [6] 0.119 µM

CC(C)(C)Nc1nc(-c2ccccn2)nc2ccccc12
active: AC50 (INS1) 2.06 µM | AC50 [7] 1.86 µM | IC50 (Nonstructural protein 1) 12.2 µM | IC50 [8] 3.88 µM | EC50 (Streptococcus) 5.93 µM | EC50 [9] 2.48 µM | AC50 [11] 1.42 µM
> 150 µM (not active): EC50 (Streptokinase A)
inactive: AC50 [10] > 70 µM

NC(Cc1ccc(C(F)(F)F)cc1)c1csc(Nc2nncc3ccccc23)n1 (stereo not given)
active: AC50 [12] 19.4 µM | AC50 [13] 8.02 µM | AC50 [14] 2.52 µM

— ChEMBL document CHEMBL1201862, “PubChem BioAssay data set” (2004)
